Read-outs that look alike come from different tables or passages of the source.
How the values were obtained:
Ebola Zaire [1] = experiment: microbe, parasite or virus in culture; conditions: Zaire ebolavirus, read-out: Ebola Zaire EC50
[2] = system: EBOV_FL: full-length Ebola Zaire GP (VSV pseudotype); experiment: microbe, parasite or virus in culture; assay type: cell-based, Zaire ebolavirus; conditions: Zaire ebolavirus, Vero, 24 h, read-out: EC50 Pseudotype Assays EBOV_FL
[3] = system: BDBV (mucin-deleted glycoprotein, VSV pseudotype); experiment: microbe, parasite or virus in culture; assay type: cell-based, Bundibugyo ebolavirus; conditions: Vesicular stomatitis virus, Vero, 24 h, read-out: EC50 Pseudotype Assays BDBV
[4] = system: SUDV (glycoprotein, VSV pseudotype); experiment: microbe, parasite or virus in culture; assay type: cell-based, Sudan ebolavirus; conditions: Vesicular stomatitis virus, Vero, 24 h, read-out: EC50 Pseudotype Assays SUDV
[5] = system: MARV (full-length glycoprotein, VSV pseudotype); experiment: microbe, parasite or virus in culture; assay type: cell-based, Marburg marburgvirus; conditions: Vesicular stomatitis virus, Vero, 24 h, read-out: EC50 Pseudotype Assays MARV
Ebola Zaire [6] = system: Ebola Zaire
in vitro [7] = conditions: African green monkey, Cytotox CC50
[8] = system: EBOV (mucin-deleted glycoprotein, VSV pseudotype); experiment: microbe, parasite or virus in culture; assay type: cell-based, Zaire ebolavirus; conditions: Zaire ebolavirus, Vero, 24 h, read-out: EC50 Pseudotype Assays EBOV
Cyp-p450 1A2 = Cyp-p450 1A2 (Homo sapiens, UniProt P05177)
[9] = microsomes, 1 h
Sudan Gulu [10] = experiment: organism not typed; conditions: read-out: Sudan Gulu EC50
Cyp-p450 2B6 = Cyp-p450 2B6 (Homo sapiens, UniProt P20813)
Cyp-p450 2D6 = Cyp-p450 2D6 (Homo sapiens, UniProt P10635)
[11] = pH 7
Cyp-p450 2C19 = Cyp-p450 2C19 (Homo sapiens, UniProt P33261)
Cyp-p450 2C8 = Cyp-p450 2C8 (Homo sapiens, UniProt P10632)
in vitro [12] = conditions: mouse
Ebola Zaire [13] = experiment: microbe, parasite or virus in culture; conditions: Zaire ebolavirus, read-out: Ebola Zaire EC90
in vitro [14] = conditions: human
[15] = microsomes, 1 h; remark: listed apart in the source
EBOV (Mayinga) = experiment: microbe, parasite or virus in culture; assay type: cell-based, Ebola virus
Cyp-p450 3A4 = Cyp-p450 3A4 (Homo sapiens, UniProt P08684)
Ebola Zaire [16] = system: Ebola Zaire; remark: listed apart in the source
in vitro [17] = conditions: human, Caco-2
[18] = microsomes, 1 h; remark: listed apart in the source
Ebola Zaire [19] = experiment: microbe, parasite or virus in culture; conditions: Zaire ebolavirus, HeLa, read-out: Ebola Zaire EC50
Sudan Gulu [20] = experiment: organism not typed; conditions: HeLa, read-out: Sudan Gulu EC50
physchem = conditions: pH 7, kinetic from dmso stock
Cyp-p450 2C9 = Cyp-p450 2C9 (Homo sapiens, UniProt P11712)
[21] = microsomes, 1 h; remark: listed apart in the source
P-gp = P-gp (Homo sapiens, UniProt P08183)
in vitro [22] = conditions: African green monkey
Sudan Gulu [23] = experiment: organism not typed; conditions: read-out: Sudan Gulu EC50; remark: listed apart in the source
Sudan Gulu [24] = system: Sudan Gulu

Chain of P-gp (P08183 whole entry): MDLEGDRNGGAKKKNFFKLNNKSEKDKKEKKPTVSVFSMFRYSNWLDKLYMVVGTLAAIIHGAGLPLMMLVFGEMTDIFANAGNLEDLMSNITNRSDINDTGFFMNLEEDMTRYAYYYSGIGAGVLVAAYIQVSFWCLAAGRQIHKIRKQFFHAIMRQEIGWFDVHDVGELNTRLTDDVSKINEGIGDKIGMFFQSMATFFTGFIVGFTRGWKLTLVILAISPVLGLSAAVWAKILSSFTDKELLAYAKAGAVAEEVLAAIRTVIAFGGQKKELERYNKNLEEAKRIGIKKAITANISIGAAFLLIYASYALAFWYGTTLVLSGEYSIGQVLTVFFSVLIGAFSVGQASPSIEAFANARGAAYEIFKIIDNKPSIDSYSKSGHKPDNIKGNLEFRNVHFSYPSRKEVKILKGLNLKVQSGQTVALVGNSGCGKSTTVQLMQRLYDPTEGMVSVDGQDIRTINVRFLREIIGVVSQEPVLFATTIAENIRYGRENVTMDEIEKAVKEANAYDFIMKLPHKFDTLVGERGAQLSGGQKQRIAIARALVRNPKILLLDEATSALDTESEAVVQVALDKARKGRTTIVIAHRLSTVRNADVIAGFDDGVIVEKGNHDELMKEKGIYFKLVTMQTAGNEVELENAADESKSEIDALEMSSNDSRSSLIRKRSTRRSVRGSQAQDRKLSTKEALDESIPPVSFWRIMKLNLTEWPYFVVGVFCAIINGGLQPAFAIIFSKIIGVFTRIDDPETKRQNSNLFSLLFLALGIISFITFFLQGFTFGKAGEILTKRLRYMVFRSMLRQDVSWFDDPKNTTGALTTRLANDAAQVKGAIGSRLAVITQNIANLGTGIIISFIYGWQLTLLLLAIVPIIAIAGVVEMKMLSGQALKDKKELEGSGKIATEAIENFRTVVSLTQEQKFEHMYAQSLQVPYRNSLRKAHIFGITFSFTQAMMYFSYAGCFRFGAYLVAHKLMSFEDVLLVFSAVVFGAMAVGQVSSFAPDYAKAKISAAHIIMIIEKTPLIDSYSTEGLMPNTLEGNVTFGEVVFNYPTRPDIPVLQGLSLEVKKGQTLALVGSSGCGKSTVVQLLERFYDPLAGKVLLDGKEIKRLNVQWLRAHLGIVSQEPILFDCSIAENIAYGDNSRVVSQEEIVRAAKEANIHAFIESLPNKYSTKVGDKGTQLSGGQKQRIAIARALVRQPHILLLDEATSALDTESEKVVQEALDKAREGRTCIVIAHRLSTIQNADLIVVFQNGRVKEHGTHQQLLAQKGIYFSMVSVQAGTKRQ
Chain of Cyp-p450 3A4 (P08684 whole entry): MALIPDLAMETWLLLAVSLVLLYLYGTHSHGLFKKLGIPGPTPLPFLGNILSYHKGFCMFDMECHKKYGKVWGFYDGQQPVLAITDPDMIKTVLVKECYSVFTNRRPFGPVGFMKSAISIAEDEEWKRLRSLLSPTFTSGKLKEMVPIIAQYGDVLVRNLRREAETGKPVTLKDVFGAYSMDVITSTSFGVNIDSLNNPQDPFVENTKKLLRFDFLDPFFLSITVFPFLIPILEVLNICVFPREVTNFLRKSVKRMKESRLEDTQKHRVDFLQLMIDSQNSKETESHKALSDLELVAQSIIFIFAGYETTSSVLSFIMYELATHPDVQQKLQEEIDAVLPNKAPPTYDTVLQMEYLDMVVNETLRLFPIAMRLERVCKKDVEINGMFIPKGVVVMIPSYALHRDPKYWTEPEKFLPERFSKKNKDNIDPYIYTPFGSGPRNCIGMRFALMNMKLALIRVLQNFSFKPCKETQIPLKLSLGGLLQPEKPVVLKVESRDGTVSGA
Chain of Cyp-p450 2D6 (P10635 whole entry): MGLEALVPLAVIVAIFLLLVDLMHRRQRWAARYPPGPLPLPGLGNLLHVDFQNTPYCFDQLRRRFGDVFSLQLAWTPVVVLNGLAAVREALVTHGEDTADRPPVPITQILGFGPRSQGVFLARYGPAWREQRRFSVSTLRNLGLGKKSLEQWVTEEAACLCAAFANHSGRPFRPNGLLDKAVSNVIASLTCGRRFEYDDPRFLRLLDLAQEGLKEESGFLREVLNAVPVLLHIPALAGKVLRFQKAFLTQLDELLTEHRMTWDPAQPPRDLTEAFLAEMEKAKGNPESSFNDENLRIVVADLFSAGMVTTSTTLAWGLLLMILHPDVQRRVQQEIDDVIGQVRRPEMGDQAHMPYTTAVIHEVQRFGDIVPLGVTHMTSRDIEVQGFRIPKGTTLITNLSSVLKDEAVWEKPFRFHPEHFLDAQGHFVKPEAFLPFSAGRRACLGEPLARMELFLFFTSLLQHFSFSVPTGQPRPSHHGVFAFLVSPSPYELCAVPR
Chain of Cyp-p450 2C8 (P10632 whole entry): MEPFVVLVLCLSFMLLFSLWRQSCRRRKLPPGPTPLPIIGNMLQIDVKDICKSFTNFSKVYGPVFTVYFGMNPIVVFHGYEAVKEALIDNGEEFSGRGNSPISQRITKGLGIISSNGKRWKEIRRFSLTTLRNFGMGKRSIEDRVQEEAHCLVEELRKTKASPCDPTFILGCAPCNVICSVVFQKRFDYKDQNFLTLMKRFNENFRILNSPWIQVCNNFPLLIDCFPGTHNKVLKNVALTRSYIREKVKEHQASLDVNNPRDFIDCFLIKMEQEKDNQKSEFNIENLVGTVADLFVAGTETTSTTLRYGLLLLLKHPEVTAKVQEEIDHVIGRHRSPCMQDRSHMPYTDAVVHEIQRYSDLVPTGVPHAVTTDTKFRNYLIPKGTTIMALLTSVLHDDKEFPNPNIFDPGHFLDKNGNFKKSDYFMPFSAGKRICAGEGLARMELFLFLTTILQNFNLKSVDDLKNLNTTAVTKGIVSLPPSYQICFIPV
Chain of Cyp-p450 1A2 (P05177 whole entry): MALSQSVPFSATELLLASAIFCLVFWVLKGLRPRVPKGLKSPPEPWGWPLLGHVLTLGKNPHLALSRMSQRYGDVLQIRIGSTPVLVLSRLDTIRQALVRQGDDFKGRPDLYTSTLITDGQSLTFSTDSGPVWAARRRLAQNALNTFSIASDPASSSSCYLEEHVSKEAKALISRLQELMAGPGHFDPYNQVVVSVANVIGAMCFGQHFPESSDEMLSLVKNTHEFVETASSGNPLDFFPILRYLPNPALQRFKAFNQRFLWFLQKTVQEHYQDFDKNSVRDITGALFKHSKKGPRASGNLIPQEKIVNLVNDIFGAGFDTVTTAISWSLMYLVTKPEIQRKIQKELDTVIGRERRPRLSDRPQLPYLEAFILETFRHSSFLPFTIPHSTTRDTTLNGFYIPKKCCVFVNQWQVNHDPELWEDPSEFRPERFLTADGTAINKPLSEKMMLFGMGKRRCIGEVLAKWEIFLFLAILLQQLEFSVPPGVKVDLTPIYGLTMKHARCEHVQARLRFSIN
Chain of Cyp-p450 2C9 (P11712 whole entry): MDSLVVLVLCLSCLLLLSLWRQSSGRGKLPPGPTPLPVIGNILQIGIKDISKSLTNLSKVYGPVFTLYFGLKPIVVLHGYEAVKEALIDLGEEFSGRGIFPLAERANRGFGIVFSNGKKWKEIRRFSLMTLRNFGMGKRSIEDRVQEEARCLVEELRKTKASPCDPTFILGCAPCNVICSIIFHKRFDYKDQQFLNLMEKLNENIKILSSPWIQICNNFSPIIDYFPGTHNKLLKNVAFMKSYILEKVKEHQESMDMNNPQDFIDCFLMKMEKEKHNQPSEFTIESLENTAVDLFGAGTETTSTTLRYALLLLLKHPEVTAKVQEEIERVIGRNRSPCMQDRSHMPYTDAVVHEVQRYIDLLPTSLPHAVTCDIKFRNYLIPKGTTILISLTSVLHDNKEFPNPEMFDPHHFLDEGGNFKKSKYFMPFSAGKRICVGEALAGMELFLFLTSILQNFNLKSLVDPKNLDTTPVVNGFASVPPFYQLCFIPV
Chain of Cyp-p450 2C19 (P33261 whole entry): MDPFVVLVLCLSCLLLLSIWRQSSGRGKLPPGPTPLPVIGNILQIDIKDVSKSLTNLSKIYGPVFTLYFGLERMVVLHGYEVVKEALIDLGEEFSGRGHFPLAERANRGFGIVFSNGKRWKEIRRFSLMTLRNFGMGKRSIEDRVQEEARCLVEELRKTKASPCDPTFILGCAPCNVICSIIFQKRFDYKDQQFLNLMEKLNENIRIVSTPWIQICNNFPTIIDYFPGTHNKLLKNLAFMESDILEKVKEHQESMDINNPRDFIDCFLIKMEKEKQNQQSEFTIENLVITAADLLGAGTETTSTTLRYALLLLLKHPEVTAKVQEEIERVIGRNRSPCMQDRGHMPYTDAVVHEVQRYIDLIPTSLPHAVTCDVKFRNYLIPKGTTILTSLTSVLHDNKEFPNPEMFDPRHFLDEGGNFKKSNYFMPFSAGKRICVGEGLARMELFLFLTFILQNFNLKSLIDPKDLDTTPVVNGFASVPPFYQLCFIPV
Chain of Cyp-p450 2B6 (P20813 whole entry): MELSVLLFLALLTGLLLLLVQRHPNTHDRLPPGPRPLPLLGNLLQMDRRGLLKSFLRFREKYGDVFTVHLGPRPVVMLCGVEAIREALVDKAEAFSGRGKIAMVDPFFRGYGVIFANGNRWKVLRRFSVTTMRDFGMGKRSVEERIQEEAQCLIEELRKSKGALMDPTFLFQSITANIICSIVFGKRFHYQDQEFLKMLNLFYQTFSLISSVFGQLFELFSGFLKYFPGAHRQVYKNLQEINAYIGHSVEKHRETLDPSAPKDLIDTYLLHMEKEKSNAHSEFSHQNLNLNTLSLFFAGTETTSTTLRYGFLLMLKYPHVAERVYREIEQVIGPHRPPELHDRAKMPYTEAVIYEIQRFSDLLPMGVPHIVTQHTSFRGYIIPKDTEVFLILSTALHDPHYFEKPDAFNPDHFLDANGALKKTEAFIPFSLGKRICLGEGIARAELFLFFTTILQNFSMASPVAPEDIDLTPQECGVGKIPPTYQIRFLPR

## CCC12CC3CC(C(=O)N4CCC(N)CC4)(C1)CC(c1ccccc1)(C3)C2 (racemic) [Example A32]
Ebola Zaire [1]
  EC50: 1330 nM
[2]
  EC50: 65 nM
[3]
  EC50: 90 nM
[4]
  EC50: 215 nM
[5]
  EC50: 7600 nM
Ebola Zaire [6]
  Ebola Zaire SI (CC50/EC50): 64
In vitro [7]
  CC50: 6000 nM
[8]
  EC50: 42 nM

## C[C@]12CC3CC(C(=O)N[C@H]4CC[C@@H](N)CC4)(C1)C[C@@](c1ccccc1)(C3)C2.Cl [Example B2]
Ebola Zaire [1]
  EC50: 240 nM
Cyp-p450 1A2
  IC50: > 100000 nM
[9]
  Liver Microsome Stability % Remaining after 60 Minutes, Mouse: 71%
[2]
  EC50: 10 nM
[3]
  EC50: 67 nM
[4]
  EC50: 277 nM
Sudan Gulu [10]
  EC50: 1100 nM
Cyp-p450 2B6
  IC50: > 100000 nM
[5]
  EC50: 6450 nM
Cyp-p450 2D6
  IC50: > 100000 nM
[11]
  Turbidimetric solubility: >500 µM
Cyp-p450 2C19
  IC50: 51000 nM
In vitro [7]
  CC50: 19100 nM
[8]
  EC50: 15 nM
Cyp-p450 2C8
  IC50: > 100000 nM
In vitro [12]
  fraction unbound: 0.011
Ebola Zaire [13]
  EC90: 800 nM
In vitro [14]
  fraction unbound: 0.039
[15]
  Liver Microsome Stability % Remaining after 60 Minutes, Guinea Pig: 100%
EBOV (Mayinga)
  SI50 (CC50/EC50): 282
EBOV (Mayinga); Zaire ebolavirus, Vero
  EC50: 240 nM
Cyp-p450 3A4; CYP Inhibition 3A4 (Midazolam)
  IC50: > 100000 nM
Cyp-p450 3A4; CYP Inhibition 3A4 (Testosterone)
  IC50: 88000 nM
Ebola Zaire [16]
  Ebola Zaire SI (CC50/EC90): 72.5
In vitro [17]
  Papp A→B: 3.07 ×10⁻⁶ cm/s
  Papp B→A: 7.86 ×10⁻⁶ cm/s
  efflux ratio: 2.71
[18]
  Liver Microsome Stability % Remaining after 60 Minutes, Monkey: 85%
Ebola Zaire [19]
  EC50: 440 nM
Sudan Gulu [20]
  EC50: 180 nM
physchem
  solubility: > 500 µM
Cyp-p450 2C9
  IC50: > 100000 nM
[21]
  Liver Microsome Stability % Remaining after 60 Minutes, Human: 100%
P-gp
  P-gp substrate ID Caco-2 Permeability (+Verapamil) Paap Mean A > B: 6.19 10^−6 cm s^−1
  P-gp substrate ID Caco-2 Permeability (+Verapamil) Paap Mean B > A: 6.83 10^−6 cm s^−1
In vitro [22]
  CC50: 67600 nM

## C[C@]12CC3CC(C(=O)N4CCC(N)CC4)(C1)C[C@@](c1ccccc1)(C3)C2 [Example B7]
Ebola Zaire [1]
  EC50: 880 nM
[9]
  Liver Microsome Stability % Remaining after 60 Minutes, Mouse: 77%
[2]
  EC50: 40 nM
[3]
  EC50: 72 nM
[4]
  EC50: 116 nM
[5]
  EC50: 8000 nM
In vitro [7]
  CC50: 31000 nM
[8]
  EC50: 45 nM
[15]
  Liver Microsome Stability % Remaining after 60 Minutes, Guinea Pig: 72%
[18]
  Liver Microsome Stability % Remaining after 60 Minutes, Monkey: 53%
Ebola Zaire [19]
  EC50: 1900 nM
Sudan Gulu [20]
  EC50: 170 nM
Sudan Gulu [23]
  EC50: 360 nM
[21]
  Liver Microsome Stability % Remaining after 60 Minutes, Human: 86%

## CC1(C)CN(C(=O)C23CC4C[C@@](C)(C2)C[C@](c2ccccc2)(C4)C3)CCC1N (stereo partly drawn) [Example B8]
[9]
  Liver Microsome Stability % Remaining after 60 Minutes, Mouse: 47%
[2]
  EC50: 50 nM
Sudan Gulu [24]
  Sudan Gulu SI (CC50/EC50): 128
[3]
  EC50: 84 nM
[4]
  EC50: 58 nM
Sudan Gulu [10]
  EC50: 130 nM
In vitro [7]
  CC50: 12400 nM
[8]
  EC50: 12 nM
[15]
  Liver Microsome Stability % Remaining after 60 Minutes, Guinea Pig: 56%
[18]
  Liver Microsome Stability % Remaining after 60 Minutes, Monkey: 30%
[21]
  Liver Microsome Stability % Remaining after 60 Minutes, Human: 76%
